What is called IC50 is the concentration at which inhibition is half-maximal.

T1 sequence (P06756 31-992 limits assumed): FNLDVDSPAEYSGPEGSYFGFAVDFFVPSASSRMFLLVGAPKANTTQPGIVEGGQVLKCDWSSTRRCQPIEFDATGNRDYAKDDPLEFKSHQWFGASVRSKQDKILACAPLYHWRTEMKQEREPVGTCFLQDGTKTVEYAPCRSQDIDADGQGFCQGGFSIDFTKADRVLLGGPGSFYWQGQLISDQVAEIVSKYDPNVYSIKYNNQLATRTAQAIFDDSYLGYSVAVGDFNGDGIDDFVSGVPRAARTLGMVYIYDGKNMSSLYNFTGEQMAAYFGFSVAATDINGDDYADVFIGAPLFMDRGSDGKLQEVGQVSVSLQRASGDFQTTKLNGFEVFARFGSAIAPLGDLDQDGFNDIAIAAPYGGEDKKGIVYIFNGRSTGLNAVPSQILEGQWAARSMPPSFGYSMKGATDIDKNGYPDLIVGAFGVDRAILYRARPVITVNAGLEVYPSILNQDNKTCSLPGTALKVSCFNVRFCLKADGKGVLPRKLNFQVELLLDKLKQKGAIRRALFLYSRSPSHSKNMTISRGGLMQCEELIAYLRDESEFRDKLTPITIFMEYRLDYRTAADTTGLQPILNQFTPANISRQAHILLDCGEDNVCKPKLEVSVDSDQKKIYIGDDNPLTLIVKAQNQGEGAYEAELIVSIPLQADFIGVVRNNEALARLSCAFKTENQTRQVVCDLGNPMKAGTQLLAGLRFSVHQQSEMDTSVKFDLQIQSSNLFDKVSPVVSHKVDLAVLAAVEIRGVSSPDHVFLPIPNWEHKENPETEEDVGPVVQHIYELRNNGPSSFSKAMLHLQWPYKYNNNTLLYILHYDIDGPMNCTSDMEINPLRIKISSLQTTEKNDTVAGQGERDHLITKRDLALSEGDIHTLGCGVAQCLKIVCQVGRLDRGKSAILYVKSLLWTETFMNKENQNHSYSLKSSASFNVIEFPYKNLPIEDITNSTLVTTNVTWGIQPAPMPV
T1 sequence (P18564 22-707 limits assumed): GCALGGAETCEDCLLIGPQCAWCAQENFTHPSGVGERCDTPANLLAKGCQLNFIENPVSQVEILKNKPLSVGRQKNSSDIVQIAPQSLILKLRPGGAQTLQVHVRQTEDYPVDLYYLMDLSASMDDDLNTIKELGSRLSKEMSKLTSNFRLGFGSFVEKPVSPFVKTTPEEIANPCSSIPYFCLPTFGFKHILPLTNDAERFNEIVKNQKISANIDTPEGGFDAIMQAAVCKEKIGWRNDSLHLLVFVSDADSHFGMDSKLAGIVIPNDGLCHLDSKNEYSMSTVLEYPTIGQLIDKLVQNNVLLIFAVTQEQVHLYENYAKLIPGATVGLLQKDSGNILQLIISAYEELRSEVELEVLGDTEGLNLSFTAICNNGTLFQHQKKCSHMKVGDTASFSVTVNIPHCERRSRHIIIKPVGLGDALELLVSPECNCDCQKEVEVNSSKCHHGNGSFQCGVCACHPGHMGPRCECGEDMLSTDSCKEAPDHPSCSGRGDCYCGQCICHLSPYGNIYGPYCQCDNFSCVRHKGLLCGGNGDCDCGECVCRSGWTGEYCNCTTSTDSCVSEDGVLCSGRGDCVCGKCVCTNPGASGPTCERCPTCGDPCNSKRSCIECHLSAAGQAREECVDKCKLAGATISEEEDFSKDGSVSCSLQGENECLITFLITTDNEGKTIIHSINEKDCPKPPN

This assay concerns the target T1, human αVβ6 (Homo sapiens, UniProt P06756+P18564).
T1 construct: purchased R & D systems 3817-AV
As to the kind of experiment: human αVβ6 HTRF binding assay. The following applies: recombinant human αVβ6 integrin, FITC-conjugated fibronectin. As for the experimental part: All binding assays used the HTRF (homogeneous time resolved fluorescence) technology from Cisbio International, therefore all assays are described as HTRF binding assays. The assay results for the Examples are listed above together with the characterization data. The HTRF binding assays are established for the following integrins: human αVβ6, human αVβ1, human αVβ3, human αVβ5, and human αVβ8. All assays used the following assay buffer: 20 mM Tris, pH 7.4, 1 mM MgCl2, 1 mM MnCl2, 0.01% Tween 20, and 0.01% BSA. Alternatively, a SPA-based assay was used for evaluation of receptor binding.
The following describes the components and a representative procedure for the human αVβ6 HTRF binding assay: Recombinant human αVβ6 Integrin (R & D systems, 3817-AV) was biotinylated. Biotinylated human αVβ6 Integrin was added to assay vessel at a final concentration of 1.25 nM. FITC-conjugated fibronectin (Cytoskeleton, FNR02) was then added at the final concentration of 5 nM. The mixture was centrifuged at 600 rpm for three minutes using Thermo Fisher Heraeus Multifuge X3 centrifuge and then incubated at RT for an hour. Streptavidin Terbium (Cisbio international 610STLB) was then added at the final concentration of 0.625 nM. The resulting mixture was centrifuged at 600 rpm for three minutes using Thermo Fisher Heraeus Multifuge X3 centrifuge and then incubated at room temperature overnight in dark before reading HTRF signals.
Background: Time-resolved FRET reads energy transfer from a long-lived donor to a nearby acceptor.
As for `COc1ccc(C(CC(=O)O)n2ccc(CCCc3ccc4c(n3)NCCCC4)n2)cn1` (racemic) [Example 100, (±)-3-(6-methoxypyridin-3-yl)-3-(3-(3-(6,7,8,9-tetrahydro-5H-pyrido[2,3-b]azepin-2-yl)propyl)-1H-pyrazol-1-yl)propanoic acid], the IC50 came to 0.0064 µM.
The value for `CN(C)C(=O)c1cccc(C(CC(=O)O)c2nc(CCCCc3ccc4c(n3)NCCC4)cs2)c1` (single isomer, unassigned) [Example 118, 3-(3-(dimethylcarbamoyl)phenyl)-3-(4-(4-(5,6,7,8-tetrahydro-1,8-naphthyridin-2-yl)butyl)thiazol-2-yl)propanoic acid] was 0.0019 µM; that for `O=C(O)C[C@@H](c1cnc2c(c1)OCCO2)n1ccc(CCCc2ccc3c(n2)NCCC3)n1` [Example 51, (S)-3-(2,3-Dihydro-[1,4]dioxino[2,3-b]pyridin-7-yl)-3-(3-(3-(5,6,7,8-tetrahydro-1,8-naphthyridin-2-yl)propyl)-1H-pyrazol-1-yl)propanoic acid] was 0.0049 µM.
The value for `COc1ncc(C(CC(=O)O)c2nc(CCCc3ccc4c(n3)NCCC4)cs2)cn1` (single isomer, unassigned) [Example 146, 3-(2-methoxypyrimidin-5-yl)-3-(4-(3-(5,6,7,8-tetrahydro-1,8-naphthyridin-2-yl)propyl)thiazol-2-yl)propanoic acid] was 0.14 µM; that for `O=C(O)CC(c1cncc(N2CCOCC2)c1)n1ccc(CCCc2ccc3c(n2)NCCC3)n1` (single isomer, unassigned) [Example 67, 3-[5-(morpholin-4-yl)pyridin-3-yl]-3-{3-[3-(5,6,7,8-tetrahydro-1,8-naphthyridin-2-yl)propyl]-1H-pyrazol-1-yl}propanoic acid] was 0.21 µM; that for `Cc1ncc(C(CC(=O)O)n2ccc(CCCc3ccc4c(n3)NCCC4)n2)cn1` (racemic) [Example 22, (±)-3-(2-Methylpyrimidin-5-yl)-3-(3-(3-(5,6,7,8-tetrahydro-1,8-naphthyridin-2-yl)propyl)-1H-pyrazol-1-yl)propanoic acid] was 0.064 µM.
The figure for `Cc1ncc(C(CC(=O)O)n2ccc(CCCc3ccc4c(n3)NCCCC4)n2)cn1` (racemic) [Example 96, (±)-3-(2-methylpyrimidin-5-yl)-3-(3-(3-(6,7,8,9-tetrahydro-5H-pyrido[2,3-b]azepin-2-yl)propyl)-1H-pyrazol-1-yl)propanoic acid] is 0.017 µM; for `CN(C)C(=O)c1cccc(C(CC(=O)O)c2nc(CCCc3ccc4c(n3)NCCC4)cs2)c1` (single isomer, unassigned) [Example 140, 3-(3-(dimethylcarbamoyl)phenyl)-3-(4-(3-(5,6,7,8-tetrahydro-1,8-naphthyridin-2-yl)propyl)thiazol-2-yl)propanoic acid] it is 0.0037 µM.
On to `COc1ncc([C@H](CC(=O)O)n2ccc(CCC[C@@H]3CCc4cccnc4N3)n2)cn1` [Example 90, (S)-3-(2-methoxypyrimidin-5-yl)-3-(3-(3-((R)-1,2,3,4-tetrahydro-1,8-naphthyridin-2-yl)propyl)-1H-pyrazol-1-yl)propanoic acid], for which the IC50 was determined as 0.22 µM.
The value for `O=C(O)CC(c1cncnc1)n1ccc(CCCc2ccc3c(n2)NCCC3)n1` (centres unmarked) [Example 84, 3-(pyrimidin-5-yl)-3-(3-(3-(5,6,7,8-tetrahydro-1,8-naphthyridin-2-yl)propyl)-1H-pyrazol-1-yl)propanoic acid] was 0.11 µM; that for `Cc1ncc(C(CC(=O)O)c2nc(CCCc3ccc4c(n3)NCCC4)cs2)cn1` (single isomer, unassigned) [Example 148, 3-(2-methylpyrimidin-5-yl)-3-(4-(3-(5,6,7,8-tetrahydro-1,8-naphthyridin-2-yl)propyl)thiazol-2-yl)propanoic acid] was 0.006 µM.
The value for `O=C(O)CC(c1cnc(N2CCC2)nc1)n1ccc(CCCc2ccc3c(n2)NCCC3)n1` (racemic) [Example 50, (±)-3-(2-(Azetidin-1-yl)pyrimidin-5-yl)-3-(3-(3-(5,6,7,8-tetrahydro-1,8-naphthyridin-2-yl)propyl)-1H-pyrazol-1-yl)propanoic acid] was 0.0064 µM; that for `COc1ccc(C(CC(=O)O)n2nccc2CCCc2ccc3c(n2)NCCC3)cc1F` (racemic) [Example 71, (±)-3-(3-fluoro-4-methoxyphenyl)-3-{5-[3-(5,6,7,8-tetrahydro-1,8-naphthyridin-2-yl)propyl]-1H-pyrazol-1-yl}propanoic acid] was 0.015 µM; that for `COc1cnc(C(CC(=O)O)n2ccc(CCCc3ccc4c(n3)NCCC4)n2)cn1` (racemic) [Example 59, (±)-3-(5-Methoxypyrazin-2-yl)-3-(3-(3-(5,6,7,8-tetrahydro-1,8-naphthyridin-2-yl)propyl)-1H-pyrazol-1-yl)propanoic acid] was 0.11 µM.
The value for `COc1ccc(C(CC(=O)O)c2ncc(CCCCc3ccc4c(n3)NCCC4)n2C)cn1` (single isomer, unassigned) [Example 165, 3-(6-methoxypyridin-3-yl)-3-(1-methyl-5-(4-(5,6,7,8-tetrahydro-1,8-naphthyridin-2-yl)butyl)-1H-imidazol-2-yl)propanoic acid] was 0.027 µM.
On to `COc1ncc(C(CC(=O)O)c2nc(CCCCc3ccc4c(n3)NCCC4)cs2)cn1` (single isomer, unassigned) [Example 144, 3-(2-Methoxypyrimidin-5-yl)-3-(4-(4-(5,6,7,8-tetrahydro-1,8-naphthyridin-2-yl)butyl)thiazol-2-yl)propanoic acid], for which the half-inhibitory concentration (IC50) amounted to 0.007 µM.
The value for `COc1ccc(C(CC(=O)O)c2cc(CCCc3ccc4c(n3)NCCC4)[nH]n2)cc1F` (single isomer, unassigned) [Example 115, 3-(3-Fluoro-4-methoxyphenyl)-3-(5-(3-(5,6,7,8-tetrahydro-1,8-naphthyridin-2-yl)propyl)-1H-pyrazol-3-yl)propanoic acid] was 0.097 µM; that for `COc1ccc(C(CC(=O)O)c2nc(CCCc3ccc4c(n3)NCCC4)cs2)cn1` (single isomer, unassigned) [Example 16, 3-(6-Methoxypyridin-3-yl)-3-(4-(3-(5,6,7,8-tetrahydro-1,8-naphthyridin-2-yl)propyl)thiazol-2-yl)propanoic acid] was 0.036 µM; that for `O=C(O)C[C@@H](c1ccc(O)nc1)n1ccc(CCCc2ccc3c(n2)NCCC3)n1` [Example 12, (S)-3-(6-Hydroxypyridin-3-yl)-3-(3-(3-(5,6,7,8-tetrahydro-1,8-naphthyridin-2-yl)propyl)-1H-pyrazol-1-yl)propanoic acid] was 0.031 µM.
`COc1ccc(C(CC(=O)O)c2nc(CCCC3CCc4cccnc4N3)cs2)cc1F` (single isomer, unassigned) [Example 158, 3-(3-fluoro-4-methoxyphenyl)-3-(4-(3-(1,2,3,4-tetrahydro-1,8-naphthyridin-2-yl)propyl)thiazol-2-yl)propanoic acid]: the IC50 turned out to be 0.007 µM.
The value for `COc1ccc(C(CC(=O)O)n2cc(CCCCc3ccc4c(n3)NCCC4)cn2)cn1` (racemic) [Example 61, (±)-3-(6-Methoxypyridin-3-yl)-3-(4-(4-(5,6,7,8-tetrahydro-1,8-naphthyridin-2-yl)butyl)-1H-pyrazol-1-yl)propanoic acid] was 0.056 µM; that for `O=C(O)CC(c1cccc(N2CCOCC2)c1)c1nc(CCCCc2ccc3c(n2)NCCC3)cs1` (single isomer, unassigned) [Example 126, 3-(3-morpholinophenyl)-3-(4-(4-(5,6,7,8-tetrahydro-1,8-naphthyridin-2-yl)butyl)thiazol-2-yl)propanoic acid] was 0.006 µM.
The figure for `O=C(O)CC(c1cnc2c(c1)OCCO2)n1ccc(CCCc2ccc3c(n2)NCCC3)n1` (racemic) [Example 35, (±)-3-(2,3-Dihydro-[1,4]dioxino[2,3-b]pyridin-7-yl)-3-(3-(3-(5,6,7,8-tetrahydro-1,8-naphthyridin-2-yl)propyl)-1H-pyrazol-1-yl)propanoic acid] is 0.017 µM; for `Cc1cc(C)c(S(=O)(=O)NC(Cc2cnn(CCCc3ccc4c(n3)NCCC4)c2)C(=O)O)c(C)c1` (racemic) [Example 25, (±)-3-(1-(3-(5,6,7,8-Tetrahydro-1,8-naphthyridin-2-yl)propyl)-1H-pyrazol-4-yl)-2-((2,4,6-trimethylphenyl)sulfonamido)propanoic acid] it is 0.395 µM; for `COc1ccc(C(CC(=O)O)c2nc(CCCC3CCc4cccnc4N3)cs2)cc1F` (single isomer, unassigned) [Example 159, 3-(3-fluoro-4-methoxyphenyl)-3-(4-(3-(1,2,3,4-tetrahydro-1,8-naphthyridin-2-yl)propyl)thiazol-2-yl)propanoic acid] it is 0.37 µM.
The figure for `O=C(O)CC(c1cncc(N2CCOCC2)c1)n1ccc(CCCc2ccc3c(n2)NCCC3)n1` (single isomer, unassigned) [Example 68, 3-[5-(morpholin-4-yl)pyridin-3-yl]-3-{3-[3-(5,6,7,8-tetrahydro-1,8-naphthyridin-2-yl)propyl]-1H-pyrazol-1-yl}propanoic acid] is 0.0028 µM.

The record behind these values is patent publication US11884661B2, “3-substituted propionic acids as αV integrin inhibitors” (BRISTOL-MYERS SQUIBB COMPANY, priority 2016, dated 2024).
